# Results published in patent publication US20030157208A1, “Cynomoriaceae extract and use in treating erectile dysfunction” (priority 2001, published 2003).
# Test system: rat corpus cavernosum tissue
# Assay: Relaxation of norepinephrine-precontracted isolated rat corpus cavernosum strips (organ bath)
# Assay type: cell-based, Sprague-Dawley (SD) rats
# Method: The extracts of this invention may be tested for their activity for alleviating or preventing symptoms erectile dysfunction by techniques known in the art. The test is similar to the endothelium-dependent vasorelaxatin test reported by Fitzpatrick et al., 1995. In general, in accordance with this protocol, plant extracts are tested for endothelium-dependent relaxation (EDR) by measuring the relaxation or contraction imparted by diluted samples to an appropriate tissue sample precontacted by norepinephrine to arrive at an EDR value that is the percentage of relaxation imparted. […] Experiments were performed on male, eight to twelve week old, 278.86±6.85 g Sprague-Dawley (SD) rats. Rats were housed in an animal care facility at the College of Medicine, University of Saskatchewan. Rats were anaesthetized with sodium pentobarbital (50 mg/kg) by intraperitoneal injection. The whole penis of one rat (shown at 10 in FIG. 3A) was gently dissected out and put into a Petri dish containing ice-cold Krebs' solution. The portion of the penis used for the experiments is shown generally at 12 in FIG. 3A. The penis was cleaned and the connective tissues were removed. The section 12 was prepared for testing as a proximal section (10 mm in length) of the corpus cavernosum 18, which was cut longitudinally into two pieces and the size of each piece was about 1×1×10 mm. […] The pH of this bath solution 23 was adjusted to 7.2. The corpus cavemosum strips 19 were tied with silk threads 24 at each end with one end immobilized at 26 on the inner wall of the organ bath chamber 20, and the other hooked to a transducer 28 (FT 03, Grass Ins. Co., Quincy). […] Strips 19 were contracted with 10 μM norepinephrine. After the plateau phase of contraction had been reached, the cumulative concentration-response relationships of BuSY and BuSY608 were tested. […] As a control and comparison compound, sildenafil ([…]®) was also used to test the penile tissue response (tissues prepared as above). […]
smiles,measurement,setting,value
CCCc1nn(C)c2c(=O)[nH]c(-c3cc(S(=O)(=O)N4CCN(C)CC4)ccc3OCC)nc12 [sildenafil],EC50,"Rattus norvegicus, strips precontracted with 10 μM norepinephrine, cumulative concentration-response, n=6",11.4 µg/mL
same,maximal relaxation,"induced by 200 μg/ml, norepinephrine-precontracted strips, n=6",66.7±6.1%
same,concentration at which relaxation was initiated,"norepinephrine-precontracted strips, cumulative concentration ladder",0.6 µg/mL
